{
  "source": "patent US9239334B2",
  "about": "“Fatty acid C16: 1N7-palmitoleate a lipokine and biomarker for metabolic status” (PRESIDENT AND FELLOWS OF HARVARD COLLEGE, priority 2008, dated 2016)",
  "key": {"[1]": {"system": "insulin receptor, IRS-1, IRS-2 and AKT phosphorylation in liver", "test": "Insulin signaling in liver of lipid-infused mice (immunoblotting)", "format": "in vivo", "settings": "fatty acid:palmitoleate infusion 3.3 μl/min", "text": "(§1) FIGS. 7A-7G show data on the regulation of insulin signaling and glucose metabolism by palmitoleate. FIG. 7A is the basal and insulin-stimulated phosphorylation of insulin receptor (IR), insulin receptor substrate-1 (IRS-1) and -2 (IRS-2) and AKT in liver of mice infused with vehicle (Veh), TG:palmitoleate (C16:1n7) or TG:palmitate (C16). Representative blots are shown and quantifications on the right are averaged results of three mice in each treatment group. […] Representative blots are shown and quantifications on the right are averaged results of three mice in each treatment group.\nThe left panel presents the insulin-stimulated phosphorylation of insulin receptor and AKT in liver of mice infused with vehicle or palmitoleate. […] Mice were infused with vehicle or palmitoleate at 3.3 μl/min for six hrs, and insulin (1 U/Kg) was injected through the infusing tubing. Three minutes after insulin injection, tissues were collected and immunoblotting analyses were performed.\nThe present invention also provides for the regulation of insulin action by increased circulating palmitoleate. To study whether palmitoleate regulates systemic metabolic responses, lipid infusions were administered in conscious mice. Lipid infusion has been used widely to investigate the relationship between plasma FFAs and insulin resistance, but almost all studies using this protocol utilized preparations of natural lipid products containing a variety of fatty acids. Kim et al., 114 J. Clin. Invest. 823-27 (2004); Kim et al., 277 J. Biol. Chem. 32915-22 (2002); Yu et al., 277 J. Biol. Chem. 50230-36 (2002). […]\nSamples of 200 μl serum were collected using heparin-coated glass tubes and spun at 13,000 g in a microcentrifuge to separate the plasma. […] Tissue protein lysates was separated with SDS-PAGE gels and phosphorylated or total proteins were detected with the following antibodies: phospho AKT Serine 473, AKT, insulin receptor, phospho-tyrosine (Santa Cruz Biotech.); IRS-1 and IRS-2 (Upstate); phospho-GSK and GSK (Cell Signaling Tech.); phospho-insulin receptor from (Calbiocbem). […]"}, "[2]": {"test": "Hyperinsulinemic-euglycemic clamp in palmitoleate-infused mice", "format": "in vivo", "text": "as §1\nFIG. 7G is the regulation of systemic metabolic responses by adipose-derived lipid hormones (Lipokines). In parallel with a variety of adipokines, specific lipids released from adipocytes in response to physiological stimuli act at remote sites including liver and muscle and regulate systemic lipid and carbohydrate metabolism. Lipid chaperones negatively regulate one of these lipokines, C16:1n7 (palmitoleate), and in the absence of these FABPs, strong flux of palmitoleate from adipose tissue to liver and muscle results in improved metabolic responses.\nTo investigate whether the increased insulin signaling by elevated serum palmitoleate can be translated into improved glucose metabolism, hyperinsulinemic-euglycemic clamp studies were performed on mice infused with either vehicle or palmitoleate. To enable delivery of lipid at a rate that is compatible with clamp studies, fatty acid:palmitoleate was used instead of TG:palmitoleate. That palmitoleate enhanced both muscle and liver insulin signaling in this setting was confirmed by examining insulin stimulated activation of insulin receptor and AKT (FIG. 21). […] Instead, the increased glucose infusion rate in these mice was driven by enhanced whole body glucose metabolism (FIG. 7F), confirming that the increased insulin signaling by palmitoleate infusion can be directly reflected as improved glycemic control in conscious mice.\nINTRALIPID® fatty acid lipid infusion solution with 2 mM triglycerides:palmitate or palmitoleate were prepared using a previously described protocol with modifications (Stein et al., 1997). Briefly, lipids were dissolved in a solvent containing 5% glycerol and 0.72% phosphocholine in 0.9% saline, heated at 80° C. for 10 min, and then sonicated 1 min four times. For TG:palmitoleate, the heating was omitted to avoid oxidization of the lipids. Lipids stay in suspension for a week, so to prevent clogging the preparations must be vortexed well before loading the syringe and tubing. […] Serum FFAs were determined using a commercial kit (Wako Chem.). […]"}, "[3]": {"settings": "hyperinsulinemic-euglycemic clamp, vs vehicle"}},
  "data": [
    {"smiles": "CCCCCC/C=C\\CCCCCCCC(=O)O", "note": "[palmitoleate, C16:1n7-palmitoleate]", "values": [
      {"measurement": "liver insulin signaling (insulin receptor and AKT activation)", "setting": "[1]", "result": "enhanced"},
      {"measurement": "glucose infusion rate to maintain euglycemia", "setting": "[2]; [3]", "result": "significantly higher"},
      {"measurement": "whole body glucose metabolism (glucose disposal rate)", "setting": "[2]; [3]", "result": "enhanced"},
      {"measurement": "clamped hepatic glucose production", "setting": "[2]; hyperinsulinemic-euglycemic clamp, vs vehicle controls", "result": "Neither basal nor clamped hepatic glucose production was significantly changed"},
      {"measurement": "basal hepatic glucose production", "setting": "[2]; vs vehicle controls", "result": "Neither basal nor clamped hepatic glucose production was significantly changed"}
    ]}
  ]
}
